From US10494338B2, “Prostaglandin derivative” (AGC INC., priority 2016, dated 2019)

System: rat platelet aggregation
Assay: Inhibitory action on rat platelet aggregation in vitro (ADP-induced, platelet-rich plasma)
Format: cell-based
Conditions: SD rat PRP, ADP 2 μmol/L; relative activity from IC50, activity of IC50 value of PGE1 = 100
Description: Experimental Example 2: Evaluation of Inhibitory Action on Rat Platelet Aggregation In Vitro (1) Preparation of Rat Platelet-Rich Plasma In the same manner as in the above-mentioned Experimental Example 1(1), blood samples were collected from the abdominal artery of 8- to 9-week-old male SD rats. PRP was diluted with PPP and the number of platelet was adjusted to 63.2×10^4/μL. (2) Measurement of Platelet Aggregation Ability In the same manner as in the above-mentioned Experimental Example 1(2) except that the final concentration of ADP was 2 μmol/L, the compound of the present invention, prostaglandin E1 (PGE1:positive control substance) or vehicle control was added as a test substance, and the maximum response of aggregation was measured. (3) Evaluation of Platelet Aggregation Inhibitory Action In the same manner as in the above-mentioned Experimental Example 1(3), IC50 values were determined from the aggregation inhibition ratio of the test substance, and the relative activity (%) of each test substance was calculated by defining the activity of IC50 value of PGE1 as 100.

Structure (SMILES) | Relative activity (%)
CCCCC[C@H](O)/C=C/[C@H]1[C@H](O)CC(=O)[C@@H]1CCCCCCC(=O)O [PGE1, prostaglandin E1, reference compound] | 100%
CCC#CC[C@H](C)C(O)/C=C/[C@H]1[C@H](O)CC(=O)[C@@H]1CCCCCCC(=O)OC (stereo partly drawn) [compound (1)-3, methyl ((1R,2R,3R)-3-hydroxy-2-((1E,3RS,4S)-3-hydroxy-4-methylnon-1-en-6-yn-1-yl)-5-oxocyclopentyl)heptanoate] | 2175%
CCC#CC[C@H](C)[C@H](O)/C=C/[C@H]1[C@H](O)CC(=O)[C@@H]1CCCCCC(F)(F)C(=O)O [compound (1)-8, 2,2-difluoro-7-((1R,2R,3R)-3-hydroxy-2-((1E,3S,4S)-3-hydroxy-4-methylnon-1-en-6-yn-1-yl)-5-oxocyclopentyl)heptanoic acid] | 817%
